Reference: PubChem BioAssay AID179 (DTP/NCI, 2004)
“And” between values parts separate entries of the source, which are not always exact repeats. Equal entries are not always repeated. The source made the active and inactive calls.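 Rule for the calls: active = compounds giving half or more protection of infected cells from virus-caused growth loss, again on retest; inactive = the rest.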

Test system: CEM cells HIV-1 protection, formazan growth assay
Assay: NCI AIDS Antiviral Assay
Details: for IC50: measured here: growth of uninfected CEM cells
In short: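 Five concentrations of each compound were applied to infected and uninfected human CEM cells. Protection from HIV-1 was judged from growth measured with a soluble formazan assay.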

SMILES	EC50	IC50	outcome
COc1cccc(OC)c1SSCCN	> 200 µM	24.5 µM	
Cc1ccc(S(=O)(=O)Nn2c3c(cc(C#N)c2=O)CCCC3)cc1	> 200 µM	> 200 µM	
CC1(C)C2CCC1(C)C(N=C(N)CSS(=O)(=O)O)C2 (stereo not given)	> 200 µM	49 µM and 30.9 µM	
O=C(Cn1c(=O)ccc2ccccc21)Cn1c(=O)ccc2ccccc21	> 200 µM	> 200 µM	
CN(C)c1ccc(-c2nc(-c3cc4c(ccc5ccccc54)oc3=O)cs2)cc1	> 100 µM	> 100 µM	
Cc1ccc2c(c1)S(=O)(=O)NC2=O	> 1260 µM	1230 µM	
O=C1OC(Cl)(C(Cl)(Cl)Cl)C(=O)OC1(Cl)C(Cl)(Cl)Cl (stereo not given)	> 200 µM	> 200 µM	
O=c1ccc2c([N+](=O)[O-])cc([N+](=O)[O-])c(O)c2[nH]1			inactive
Oc1[nH]c2ccccc2c1N=Nc1nc(-c2ccc(Br)cc2)cs1	> 200 µM	120 µM	
CCOC(=O)NC(=O)c1cn(CCNCCO)c(=O)[nH]c1=O			inactive
CN(C)c1ccc(/C=C2\C=Nc3ccccc32)cc1	> 20.9 µM	14.1 µM	
CC(=O)OCC(=O)[C@@]1(O)CC[C@H]2[C@@H]3CCC4=CC(=O)C=C[C@]4(C)[C@@]3(F)[C@@H](O)C[C@@]21C			inactive
CC1CC(C)(C)N=C(C(C)CC2CCCCC2)O1 (stereo not given)	> 200 µM	21.9 µM	
Cc1ccc(NC(=O)CC2SC(N)=NC2=O)cc1C (stereo not given)			inactive
S=c1sc2c(s1)SCc1cccc(n1)CSc1sc(=S)sc1SCc1cccc(n1)CS2	> 200 µM	> 200 µM	
CC1(C)COC(Cc2ccccc2)=N1	> 200 µM	> 200 µM	
NC(=O)C(=CNc1nc(-c2ccc(Cl)c(Cl)c2)cs1)C(N)=O	> 200 µM	102 µM	
O=[N+]([O-])c1ccc(NC(=S)N=Nc2c(O)[nH]c3ccccc23)cc1	> 200 µM	15.5 µM	
C=C(O)c1ccccc1C#Cc1ccccc1C(=O)OC	> 200 µM	> 100 µM	
O=C1OC(C(O)CO)C(O)=C1Nc1ccc(S(=O)(=O)c2ncc(NC3=C(O)C(C(O)CO)OC3=O)s2)cc1 (stereo not given)	> 200 µM	21.9 µM	
COC1=C(C)C(=O)C2=C(C1=O)C(CO)N1C(C#N)C3CC4C(C1C2N1CCOC41)N3C (stereo not given)	> 1.17 µM	0.00575 µM	
[C-]#[O+].[C-]#[O+].[C-]#[O+].[Mo].c1ccc([PH+](CC[As](c2ccccc2)c2ccccc2)CC[As](c2ccccc2)c2ccccc2)cc1			inactive
CSC1=C(C#N)C(c2ccccc2)CC(=O)N1 (stereo not given)	> 200 µM	> 200 µM	

SMILES	EC50	IC50	outcome
CNC(=S)/C(=N\Nc1nc[nH]c1C(N)=O)C(N)=S	> 2 µM	0.955 µM	
COc1ccc2nc3cc(Cl)ccc3c(NCCCN3CCN(CCCNc4ccc5nnn6c7ccccc7c(=O)c4c56)CC3)c2c1	0.00251 µM	0.00794 µM	
CC(C)(C)C#C[P+](c1ccccc1)(c1ccccc1)c1ccccc1	> 2 µM	0.012 µM	
CC1(C)CC[C@]2(C(=O)O)C(O)CC3(C)C(=CCC4[C@@]5(C)CC[C@H](OS(=O)(=O)O)C(C)(C)C5CC[C@]43C)[C@@H]2C1 (stereo not given in full)	> 219 µM	> 219 µM	
c1ccc(SC(CCCCOC2CCCCO2)Sc2ccccc2)cc1 (stereo not given)			inactive
O=C1OC(=O)C2C1CC1C(=O)OC(=O)C12 (stereo not given)	> 1200 µM	> 1200 µM	
O=Cc1cc(O)ccc1Br	> 200 µM	2.95 µM	
CCCC(=O)C(C)=C(OC)OC			inactive
O=c1oc2ccccc2c(O)c1/C=N\c1nc(-c2ccccc2)cs1	> 200 µM	3.39 µM	
CC1CC(C)(C)N2CCC(C(=O)N3Cc4cc5ccccc5nc4C3)C2O1 (stereo not given)	> 200 µM	> 200 µM	
C=CCOc1c(C)cc(C#N)cc1C			inactive
N#C/C=C\c1ccc(Cl)cc1	> 43.7 µM	> 43.7 µM	
O=C1C(Br)=C(Br)C(=O)c2ccc(=O)ccc21	> 55 µM	9.77 µM	
O=c1[nH]c(=O)c2nnoc2[nH]1	> 200 µM	75.9 µM	
CSc1s[s+]c(SC)c1[O-]			inactive
O=C(Nc1ccc(Cl)c(Cl)c1)O/N=C\c1c(Cl)ccc([N+](=O)[O-])c1Cl			inactive
O=c1oc2ccccc2c(O)c1/C=N/C(=S)NCCc1ccccc1	> 200 µM	> 200 µM	
CCN=C1C=C/C(=C(/c2ccc(NCC)c(C)c2)c2cc(O)c(S(=O)(=O)O)cc2S(=O)(=O)O)C=C1C			inactive
CCC[CH2][Sn]([CH2]CCC)([O]C(=O)CN)[O]C(=O)CN	> 33.9 µM	2.45 µM	
OC(C1=C/C(=C\c2ccncc2)c2ccccc21)c1ccncc1 (stereo not given)	> 83.2 µM	5.25 µM	
CC(C)(C)[Si](C)(C)OCC1=C(CC#N)C(O[Si](C)(C)C(C)(C)C)C(n2ccc(=O)[nH]c2=O)O1 (stereo not given)	> 200 µM	9.33 µM	
C[C@]12CC[C@@H]3c4cc(OCC(F)(F)F)c(O)cc4CC[C@H]3[C@@H]1CC[C@@H]2O	> 0.2 µM	0.0676 µM	
O=C1CSC2=NC3=C(CSC/C3=C\c3ccc(Cl)cc3)C(c3ccc(Cl)cc3)N12 (stereo not given)	> 200 µM	9.77 µM	

SMILES	EC50	IC50	outcome
Nc1ccc(C(=O)NN2C(=O)C(Cl)C2c2ccccc2Cl)cc1 (stereo not given)	> 200 µM	3.31 µM	
COc1cc2c(oc(=O)c3c4oc([Si](C)(C)C)cc4cc(OC)c23)c2cccc(OCc3ccccc3)c12	> 0.501 µM	> 0.501 µM	
O=C1c2ccccc2-c2c(Br)c3ccccc3c(=O)n21	> 100 µM	69.2 µM	
CC(=O)C(C)(O)C(OP(=O)(O)O)c1ccccc1 (stereo not given)	> 200 µM	> 200 µM	
Cc1ccc(/C=C/C(=O)C(C)(C)CN2CCCCC2)cc1	> 27.5 µM	> 27.5 µM	
COc1cc(/C=C/C(=O)OC[C@H](Br)[C@H](OC(C)=O)c2ccc3c(c2)OCO3)cc(OC)c1OC	> 200 µM	47.9 µM	
C[N+](C)([O-])CCNC(=O)c1cccc2cc3ccccc3nc12			inactive
O=C(CCc1ccccc1CO)NCCc1ccccc1	> 200 µM	> 200 µM	
C1=CC2/C=C\c3[nH]c4ccccc4c3CCN(C1)C2 (stereo not given)	> 162 µM	75.9 µM	
C[C@@H]1O[C@]2(O)[C@@H]3CCCN3S(=O)(=O)CCN2C1=O	> 912 µM	> 912 µM	
N=c1oc2ccccc2cc1-c1nc2ccccc2c(=O)[nH]1			inactive
C#CC1(O)CCC2C3CCc4cc(Oc5nc(F)nc(-c6c7ccccc7c7n6CCS7)n5)ccc4C3CC[C@@]21C (stereo not given in full)	> 200 µM	11.2 µM	
Cn1c(=Nc2ccccc2[N+](=O)[O-])sc2ccccc21	> 200 µM	> 100 µM	
COc1c(Cl)cc(Cc2cc(Cl)c(OC)c([N+](=O)[O-])c2)cc1[N+](=O)[O-]	> 200 µM	> 200 µM	
CCOP(=O)(Cc1nc(C#N)c(N)o1)OCC	> 200 µM	> 200 µM	
C[C@]12CCc3nonc3C1CC[C@@H]1C2CC[C@]2(C)NC(=O)CCC12 (stereo not given in full)	> 51.3 µM	> 51.3 µM	
C=C1C(OC(=O)C(O)C(c2ccccc2)N(C)C)C[C@H](OC(C)=O)[C@]2(C)C1C(OC(C)=O)[C@@H]1CC(OC(C)=O)C(C)=C([C@@H](OC(C)=O)C2OC(C)=O)C1(C)C (stereo not given in full)			inactive
Nc1cc(N2CCCC2)nc(=O)n1Cc1ccccc1			inactive
O=c1n(CC2CO2)c(=O)n(CC2CO2)c(=O)n1CC1CO1 (stereo not given)	> 832 µM	1.51 µM	
CC/C(Cl)=N\OC(=O)Nc1ccc(OC)cc1	> 20 µM	6.76 µM	
CC(=O)OC1COC(n2c(=S)n(-c3ccc(C)cc3)c(=O)c3ccccc32)C(OC(C)=O)C1OC(C)=O (stereo not given)	> 25.7 µM	> 25.7 µM	
CCOC(=O)C1=NN(c2ccc([N+](=O)[O-])cc2)[C@@]2(C)C[C@]3(c4ccccc4)N(c4ccc([N+](=O)[O-])cc4)N=C(C(=O)OCC)N3c3ccccc3N12	> 200 µM	> 200 µM	
O=C(Nc1ccc(C2=NCCN2)cc1)C1CCC(C(=O)Nc2ccc(C3=NCCN3)cc2)CC1 (stereo not given)	> 200 µM	11 µM	

SMILES	EC50	IC50	outcome
Nc1nc(Cl)c(/C=N\O)c(NCC2(CO)CCC2)n1	> 20 µM	11.5 µM	
COc1ccc2nc3cccc([N+](=O)[O-])c3c(NCCCO)c2c1	> 2 µM	0.017 µM	
CC1OC(Oc2ccc3c(=O)c(-c4ccc(O)cc4)coc3c2)C(O)C(O)C1O (stereo not given)	> 200 µM	93.3 µM	
CC(=O)CCn1[nH]c(=O)c(Cl)c(Cl)c1=O	> 1000 µM	> 1000 µM	
O=C(O)C12C3C4C1C1C2C3C41C(=O)O (stereo not given)	> 200 µM	> 200 µM	
CC(=O)O[C@H]1CCC2[C@@H]3CCC4=C(O)C(=O)C(C#N)C[C@]4(C)C3CC[C@@]21C (stereo not given in full)			inactive
Nc1nc(=O)n(C2OC(CO)C(O)C2Cl)cc1I (stereo not given)	> 200 µM	1.17 µM	
CCN(CC)CCOC(=O)c1c(C)oc2cc3c(C(=O)OCCN(CC)CC)c(C)oc3cc12	> 200 µM	6.03 µM	
Clc1cc(Cl)c(NN=C(c2ccccc2)c2ccccc2)c(Cl)c1	> 200 µM	> 200 µM	
CON(C)C(=O)C(C)N(Cc1ccccc1)Cc1ccccc1 (stereo not given)	> 83.2 µM	33.1 µM	
NC1=NN(c2ccccc2)C2(O)c3ccncc3C3=NN(c4ccccc4)C(=O)C132 (stereo not given)	> 200 µM	> 200 µM	
COC(=O)C(C(=O)C(N)=O)c1csc(-n2nc(-c3ccccc3)cc2-c2ccccc2)n1 (stereo not given)	> 61.7 µM	53.7 µM	
CC1=C2C3CCCC(C3=O)[C@H](C)C2CC1=O (stereo not given in full)			inactive
COC1CCC(OS(C)(=O)=O)C(C)O1 (stereo not given)	> 200 µM	110 µM	
O=C(/C=C/c1cccc2ccccc12)c1ccccc1[N+](=O)[O-]	> 200 µM	3.24 µM	
COc1ccc(CCn2cnc3ccccc32)cc1	> 200 µM	> 200 µM	
OCC(S)CS (stereo not given)	> 151 µM	72.4 µM	
CSc1n[nH]c(=O)c2nc[nH]c12	> 245 µM	> 245 µM	
CN(C)CC1CCC/C(=C\c2ccc(Cl)c(Cl)c2)C1=O (stereo not given)			inactive
O[C@@H]1CCN(Cc2ccccc2)C[C@@H]1CNC12CC3CC(CC(C3)C1)C2	> 72.4 µM	> 72.4 µM	
